In patent publication US20010004643A1, “Pharmaceutical composition with sotalol combination and their use in treatment of cardiac ailments” (priority 1999, published 2001):
Marks after values point to notes of the source that are not given here.

Legend:
[1] = test system: ouabain induced arrhythmia (VT, VF, mortality); assay: Ouabain induced arrhythmia model in guinea pig; format: in vivo; conditions: for actual incidence of mortality (value in parenthesis): 60 min; for actual incidence of mortality (value in parenthesis) / actual incidence of VF (value in parenthesis) / actual incidence of VT (value in parenthesis): number of animals of the group; for % INCIDENCE OF MORTALITY: mortality at 60 min; for deaths due to conduction block (60 min), actual incidence (value in parenthesis) / deaths due to tachyarrhythmia (60 min), actual incidence (value in parenthesis): number of animals; for % INCIDENCE OF VF / % INCIDENCE OF VT: ouabain 240 μg/kg in three doses, observed one hour; for DEATHS DUE TO CONDUCTION BLOCK (60 MIN) Percentage / DEATHS DUE TO TACHYARRHYTHMIA (60 MIN) Percentage: percentage deaths out of total mortality
Description: Method: Guinea pigs (Dunken Hartley) of either sex weighing between 400 and 500 g were used for the study. The animals were anesthetized with urethane (1.25 g/kg. i.p.). The left common carotid artery and left jugular vein were cannulated for arterial blood pressure monitoring and intravenous access respectively. Lead II electrocardiogram, arterial blood pressure, mean arterial blood pressure (MABP), heart rate were monitored throughout the experiment.
After initial surgical preparations and allowing 30 minutes for the animal to stabilise the first dose of ouabain (90 μg/kg) was administered over a period of one minute. After the interval of thirty minutes, second dose of ouabain (60 μg/kg) was administered over a period of one minute. One minute after this dose, 0.5 ml saline (in control experiments) was administered over a period of one minute. After an interval of 10 minutes a third dose of ouabain (90 μg/kg) was administered over a period of one minute. […] The test compounds were administered to animals in test group in place of saline to evaluate their antiarrhythmic potential. From the ECG recordings, the incidence of VT, VF and mortality were recorded. The doses of ratios of sotalol isomers studied were 0.1, 0.5 and 2.5 mg/kg.
Interpretation of ECG recordings: Minor disturbance in rhythm was not considered while evaluating ventricular tachyarrhythmias. A run of more than 3 ventricular ectopic beats having wide QRS complexes associated with partial haemodynamic collapse was considered as Ventricular Tachycardia (VT). Total morphological irregularity of repetitive complexes for at least six cycles associated with complete haemodynamic collapse was considered as Ventricular Fibrillation (VF). Successful arrhythmia protection was defined as no occurrence of VT and VF from the injection of saline/test drug till the end of the experiment.
Statistics: Chi square test with continuity correction at 95% confidence limit was applied to find out the statistical significance between control and test groups for incidence of VT, VF and mortality. Whenever, any of the value in a cell was less than 5, Fischer's exact probability test was used.
Results: Different ratios of sotalol in the dose range from 0.02 mg/kg to 12.5 mg/kg were studied in individual groups of animals. In all 18 groups were studied and at least 6 animals were used in each group. In control animals ouabain 240 μg/kg in three divided doses induced reproducible ventricular tachyarrhythmias in guinea pigs. It was observed that ventricular arrhythmias appeared after the administration of the third dose. Guinea pigs which responded early i.e. before or within 1 min. of administration of the second dose, were considered early responders and were not included in the study. […] In the study, control experiments were carried out randomly interspersed in test groups. Among the 42 control animals the incidence of VT was 81%, incidence of VF was 71.4% and the incidence of mortality at 60 minutes was 61.9%.

[2] = test system: beta adrenergic blockade, isolated right auricle preparation of rabbit; assay: Beta blocking potency (pA2 against isoprenaline) in isolated rabbit right auricle; conditions: isoprenaline chronotropic response, Schild's plot
Method: Estimation of the beta blockade of various ratios of d- and l- isomers of sotalol was carried out in the isolated right auricle preparation of rabbit. The spontaneously beating right atrium was dissected and mounted in a 20 ml tissue bath. The resting tension on the atria was set at 1 g. The contractions were recorded using a force displacement transducer. The spontaneous contractions of the right atria were recorded isometrically and the heart rate was obtained as a derived parameter using a ratemeter that gave the output in beats per minute. Six different ratios of d and l isomers were investigated (1:1, 2:1, 3:1, 4:1, 5:1 and 1:0). Dose-response-curves (DRC) for isoprenaline in the isolated atria, using the chronotropic response were determined by cumulative addition of isoprenaline. The pA2 values of each of the ratios were estimated using the classical Schild's plot (Schild, 1957) and the values are shown in Table 1.

[3] = guinea pig, in vivo, listed as 4:1 ratio (d:l)

CC(C)NCC(O)c1ccc(NS(C)(=O)=O)cc1 (stereo not drawn) [4:1 RATIO, N-[4-[1-hydroxy-2-[(1-methylethyl)amino]ethyl]phenyl] methane sulfonamide]
actual incidence of mortality (value in parenthesis) ([1]; 0.5 mg/kg): (2)
% INCIDENCE OF MORTALITY ([1]; 0.5 mg/kg): 33.3%
deaths due to conduction block (60 min), actual incidence (value in parenthesis) ([1]; 0.5 mg/kg): (1)
deaths due to tachyarrhythmia (60 min), actual incidence (value in parenthesis) ([1]; 0.5 mg/kg): (1)
actual incidence of VF (value in parenthesis) ([1]; 0.5 mg/kg): (6)
actual incidence of VT (value in parenthesis) ([1]; 0.5 mg/kg): (6)
% INCIDENCE OF VF ([1]; 0.5 mg/kg): 100.0%
% INCIDENCE OF VT ([1]; 0.5 mg/kg): 100.0%
DEATHS DUE TO CONDUCTION BLOCK (60 MIN) Percentage ([1]; 0.5 mg/kg): 50.0%
DEATHS DUE TO TACHYARRHYTHMIA (60 MIN) Percentage ([1]; 0.5 mg/kg): 50.0%
protection against VF ([1]; 2.5 mg/kg): some protection
protection against ouabain induced VT ([1]; 2.5 mg/kg): some protection
actual incidence of mortality (value in parenthesis) ([1]; 2.5 mg/kg): (2)
protection against arrhythmias (VT and VF) ([1]; 2.5 mg/kg, listed as 4:1): could not protect
% INCIDENCE OF MORTALITY ([1]; 2.5 mg/kg): 33.3%
% INCIDENCE OF MORTALITY ([1]; 2.5 mg/kg, listed as 4:1): 33.3%
deaths due to conduction block (60 min), actual incidence (value in parenthesis) ([1]; 2.5 mg/kg): (2)
deaths due to tachyarrhythmia (60 min), actual incidence (value in parenthesis) ([1]; 2.5 mg/kg): (0)
actual incidence of VF (value in parenthesis) ([1]; 2.5 mg/kg): (2)
actual incidence of VT (value in parenthesis) ([1]; 2.5 mg/kg): (2)*
% INCIDENCE OF VF ([1]; 2.5 mg/kg): 33.3%
% INCIDENCE OF VT ([1]; 2.5 mg/kg): 33.3%
% INCIDENCE OF VF ([1]; 2.5 mg/kg, listed as 4:1): 33.3%
% INCIDENCE OF VT ([1]; 2.5 mg/kg, listed as 4:1): 33.3%
DEATHS DUE TO CONDUCTION BLOCK (60 MIN) Percentage ([1]; 2.5 mg/kg): 100.0%
DEATHS DUE TO TACHYARRHYTHMIA (60 MIN) Percentage ([1]; 2.5 mg/kg): 00.0%
protection against arrhythmias (VT and VF) ([1]; 12.5 mg/Kg): could protect
actual incidence of mortality (value in parenthesis) ([1]; 12.5 mg/kg): (4)
% INCIDENCE OF MORTALITY ([1]; 12.5 mg/kg): 66.6%
% INCIDENCE OF MORTALITY ([1]; 12.5 mg/kg, listed as 4:1 ratio): 66.6%
deaths due to conduction block (60 min), actual incidence (value in parenthesis) ([1]; 12.5 mg/kg): (3)
deaths due to tachyarrhythmia (60 min), actual incidence (value in parenthesis) ([1]; 12.5 mg/kg): (1)
actual incidence of VF (value in parenthesis) ([1]; 12.5 mg/kg): (0)*
actual incidence of VT (value in parenthesis) ([1]; 12.5 mg/kg): (0)*
% INCIDENCE OF VF ([1]; 12.5 mg/kg): 00.0%
% INCIDENCE OF VT ([1]; 12.5 mg/kg): 00.0%
DEATHS DUE TO CONDUCTION BLOCK (60 MIN) Percentage ([1]; 12.5 mg/kg): 75.0%
DEATHS DUE TO TACHYARRHYTHMIA (60 MIN) Percentage ([1]; 12.5 mg/kg): 25.0%
mortality ([1]; effective dose of 12.5 mg/kg): significantly high
dose at which complete protection against VT was observed [1, 3]: 12.5 mg/kg
dose that completely protected against VF [1, 3]: 12.5 mg/kg
pA2 Mean ([2]; listed as 4:1): 6.01

CC(C)NCC(O)c1ccc(NS(C)(=O)=O)cc1 (stereo not drawn) [d-SOTALOL, N-[4-[1-hydroxy-2-[(1-methylethyl)amino]ethyl]phenyl] methane sulfonamide]
actual incidence of mortality (value in parenthesis) ([1]; 0.5 mg/kg): (5)
% INCIDENCE OF MORTALITY ([1]; 0.5 mg/kg): 50.0%
deaths due to conduction block (60 min), actual incidence (value in parenthesis) ([1]; 0.5 mg/kg): (1)
deaths due to tachyarrhythmia (60 min), actual incidence (value in parenthesis) ([1]; 0.5 mg/kg): (4)
actual incidence of VF (value in parenthesis) ([1]; 0.5 mg/kg): (7)
actual incidence of VT (value in parenthesis) ([1]; 0.5 mg/kg): (7)
% INCIDENCE OF VF ([1]; 0.5 mg/kg): 70.0%
% INCIDENCE OF VT ([1]; 0.5 mg/kg): 70.0%
DEATHS DUE TO CONDUCTION BLOCK (60 MIN) Percentage ([1]; 0.5 mg/kg): 20.0%
DEATHS DUE TO TACHYARRHYTHMIA (60 MIN) Percentage ([1]; 0.5 mg/kg): 80.0%
actual incidence of mortality (value in parenthesis) ([1]; 2.5 mg/kg): (6)
% INCIDENCE OF MORTALITY ([1]; 2.5 mg/kg): 66.6%
deaths due to conduction block (60 min), actual incidence (value in parenthesis) ([1]; 2.5 mg/kg): (3)
deaths due to tachyarrhythmia (60 min), actual incidence (value in parenthesis) ([1]; 2.5 mg/kg): (3)
actual incidence of VF (value in parenthesis) ([1]; 2.5 mg/kg): (6)
actual incidence of VT (value in parenthesis) ([1]; 2.5 mg/kg): (7)
% INCIDENCE OF VF ([1]; 2.5 mg/kg): 66.6%
% INCIDENCE OF VT ([1]; 2.5 mg/kg): 77.7%
DEATHS DUE TO CONDUCTION BLOCK (60 MIN) Percentage ([1]; 2.5 mg/kg): 50.0%
DEATHS DUE TO TACHYARRHYTHMIA (60 MIN) Percentage ([1]; 2.5 mg/kg): 50.0%
actual incidence of mortality (value in parenthesis) ([1]; 12.5 mg/kg): (6)
% INCIDENCE OF MORTALITY ([1]; 12.5 mg/kg): 100.0%
% INCIDENCE OF MORTALITY ([1]; 12.5 mg/kg, listed as d-Sotalol): 100%
deaths due to conduction block (60 min), actual incidence (value in parenthesis) ([1]; 12.5 mg/kg): (3)
deaths due to tachyarrhythmia (60 min), actual incidence (value in parenthesis) ([1]; 12.5 mg/kg): (3)
actual incidence of VF (value in parenthesis) ([1]; 12.5 mg/kg): (3)
actual incidence of VT (value in parenthesis) ([1]; 12.5 mg/kg): (3)
% INCIDENCE OF VF ([1]; 12.5 mg/kg): 50.0%
% INCIDENCE OF VT ([1]; 12.5 mg/kg): 50.0%
DEATHS DUE TO CONDUCTION BLOCK (60 MIN) Percentage ([1]; 12.5 mg/kg): 50.0%
DEATHS DUE TO TACHYARRHYTHMIA (60 MIN) Percentage ([1]; 12.5 mg/kg): 50.0%
cause of deaths ([1]; doses 2.5 mg/kg and 12.5 mg/kg): equally due to conduction abnormality as well as tachyarrhythmias
protection against ouabain induced VF ([1]; no dose stated): ineffective
protection against ouabain induced VT ([1]; no dose stated): ineffective
pA2 Mean ([2]; listed as 1:0): 5.44
pA2 Mean ([2]; listed as pure d-isomer of sotalol): 5.44
